# Source: patent publication US20230404929A1, “Intradermal Delivery of Extracellular Vesicle-Encapsulated Curcumin Using Dissolvable Microneedle Arrays” (priority 2020, published 2023)
# Key:
# [1] = in vitro stability of curcumin in phosphate-buffered saline at 37° C.; assay type: physicochemical
# [2] = system: psoriasis-like inflammation; assay: imiquimod psoriasis-like skin inflammation in mice; assay type: in vivo; settings: skin cross-section
# Source text: The efficacy of dMNA-delivered CA-EVs in simultaneously blocking and reversing inflammation was studied. The treatments included topical, intradermal, and dMNA application of CA-EVs, naïve EVs, and naked curcumin.
structure (smiles),measurement,setting,value
"COc1cc(/C=C/C(=O)CC(=O)/C=C/c2ccc(O)c(OC)c2)ccc1O [naked curcumin, curcumin]",curcumin remaining stable,[1]; 3 hours,5%
same,degradation of curcumin over time,[1]; seven-day study,degraded entirely within one day
same,therapeutic effect on imiquimod-induced skin inflammation,[2],negligible effect
